The values that follow come from ChEMBL document CHEMBL1201862, “PubChem BioAssay data set” (2004).

Among the test systems are CCRF-CEM; Malme-3M; Hs-578T; HCC 2998; NCI-H522; SF-295; OVCAR-8; A549; UO-31; HL-60; M14; SK-MEL-2; OVCAR-4; SNB-75; SF-268; OVCAR-3; MOLT-4; SR; UACC-62; DU-145.
Holding throughout (experiment): NCI tumour cell line growth inhibition, 48 h

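These data come from cells grown in 96-well plates and exposed to compound for 48 hours at five concentrations. GI50 marks 50% less growth.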 The source made the active and inactive calls. Cut-off read from the data, not from the text of the source: active = GI50 up to about 1.1 µM and inactive = higher.

On to `C=CC(C)(C)n1cc(C2=C(O)C(=O)C(c3cn(C(C)(C)C=C)c4ccccc34)=C(O)C2=O)c2ccccc21`, for which the GI50 in the assay on CCRF-CEM was 5.25 µM (inactive); in the assay on Malme-3M it was 2.54 µM (inactive); in the assay with Hs-578T, 2.07 µM (inactive); with HCC 2998 it was 2.61 µM (inactive); in the assay with NCI-H522, 2.53 µM (inactive); in the assay with SF-295, 2.85 µM (inactive). For the same molecule, the GI50 in the assay on OVCAR-8 is 2.11 µM (inactive); with A549, 3.68 µM (inactive); with UO-31 it was 1.67 µM (inactive); in the assay with HL-60, 5.09 µM (inactive); with M14, 2.71 µM (inactive); in the assay on SK-MEL-2, 1.73 µM (inactive). The GI50 with OVCAR-4 is 1.76 µM (inactive); with SNB-75, 2.36 µM (inactive); with SF-268, 2.19 µM (inactive); in the assay with OVCAR-3 it was 1.96 µM (inactive); with MOLT-4 it was 4.07 µM (inactive); with SR, 3.57 µM (inactive). Besides, the GI50 with UACC-62 is 1.98 µM (inactive); with DU-145 it was 4.9 µM (inactive).

Turning to `C=CCN1C(=O)CS/C1=N\NC(=O)CSc1nc2ccccc2c(=O)n1CC`, the GI50 in the assay with CCRF-CEM, with Malme-3M, in the assay on Hs-578T, with HCC 2998, in the assay with NCI-H522 and in the assay on SF-295 was > 100 µM (inactive) each time. Moreover, the GI50 in the assay on OVCAR-8 was > 100 µM (inactive); in the assay with A549, > 100 µM (inactive); with UO-31 it was 41.9 µM (inactive); with HL-60, > 100 µM (inactive); with M14, > 100 µM (inactive); with SK-MEL-2, > 100 µM (inactive). The GI50 in the assay on OVCAR-4, in the assay with SNB-75, with SF-268, with OVCAR-3, in the assay on MOLT-4 and with SR was > 100 µM (inactive) throughout. Besides, the GI50 in the assay with UACC-62 is 92 µM (inactive); in the assay on DU-145, > 100 µM (inactive).

For the molecule `c1ccc(CSSSCc2ccccc2)cc1` [DIBENZYL TRISULFIDE], the GI50 is 0.0269 µM (active) in the assay on CCRF-CEM; 7.36 µM (inactive) in the assay with Malme-3M; 8.32 µM (inactive) with Hs-578T; 5.58 µM (inactive) in the assay with HCC 2998; 0.363 µM (active) in the assay on NCI-H522; 6.58 µM (inactive) in the assay with SF-295. For the same molecule, the GI50 with OVCAR-8 is 1.15 µM (inactive); in the assay with A549, 5.09 µM (inactive); with UO-31, 6.55 µM (inactive); with HL-60, 0.378 µM (active); with M14 it was 2.27 µM (inactive); in the assay on SK-MEL-2, 1.08 µM (active). Moreover, the GI50 with OVCAR-4 is 2.3 µM (inactive); in the assay on SNB-75 it was 7.18 µM (inactive); in the assay on SF-268, 3.57 µM (inactive); in the assay on OVCAR-3, 0.423 µM (active); in the assay with MOLT-4, 0.139 µM (active); in the assay on SR, 4.06 µM (inactive). The GI50 is 2.15 µM (inactive) with UACC-62 and 1.12 µM (active) in the assay with DU-145.

Regarding `C=C1C(=O)O[C@H]2[C@H]1[C@H](OC(=O)/C(C)=C\C)C[C@]1(CO1)[C@@H]1[C@H](OC(C)=O)C=C(C)[C@]21O` [EUPAROTIN ACETATE], the GI50 with CCRF-CEM was 2.36 µM (inactive); in the assay on Malme-3M it was 13.5 µM (inactive); in the assay with Hs-578T it was > 56.2 µM (inactive); in the assay with HCC 2998, 19.3 µM (inactive); in the assay on NCI-H522, 3.31 µM (inactive); in the assay with SF-295, > 83.9 µM (inactive). Besides, the GI50 in the assay on OVCAR-8 is 30.8 µM (inactive); in the assay with A549, 69.2 µM (inactive); in the assay with UO-31, 13.7 µM (inactive); in the assay with HL-60, 2.66 µM (inactive); in the assay on M14, 21.6 µM (inactive); in the assay with SK-MEL-2, 25.5 µM (inactive). In addition, the GI50 with OVCAR-4 was 32.8 µM (inactive); in the assay with SNB-75 it was 67.5 µM (inactive); with SF-268, 19.2 µM (inactive); in the assay on OVCAR-3, 14.7 µM (inactive); with MOLT-4, 5.18 µM (inactive); in the assay with SR it was 3.64 µM (inactive). Moreover, the GI50 was 15.5 µM (inactive) in the assay on UACC-62 and 15.4 µM (inactive) in the assay with DU-145.

With `C[C@]12CC[C@H]3[C@@H](CC[C@]4(O)C[C@@H](O)CC[C@]34C=O)[C@@]1(O)CC[C@@H]2C1=CC(=O)OC1` [STROPHANTHIDIN], the GI50 with CCRF-CEM was 0.488 µM (active); in the assay with Malme-3M it was 0.435 µM (active); with Hs-578T, 0.682 µM (active); in the assay on HCC 2998 it was 4.27 µM (inactive); in the assay with NCI-H522, 0.0942 µM (active); in the assay with SF-295 it was 0.457 µM (active). Besides, the GI50 in the assay on OVCAR-8 is 0.498 µM (active); with A549 it was 0.159 µM (active); in the assay on UO-31 it was 0.444 µM (active); with HL-60, 0.347 µM (active); in the assay with M14, 1.07 µM (active); with SK-MEL-2, 1.61 µM (inactive). For the same molecule, the GI50 in the assay on OVCAR-4 was 0.298 µM (active); in the assay on SNB-75 it was 1.14 µM (inactive); in the assay with SF-268, 0.397 µM (active); with OVCAR-3, 0.421 µM (active); in the assay on MOLT-4 it was 0.112 µM (active); in the assay with SR, 0.386 µM (active). In addition, the GI50 in the assay on UACC-62 was 1.52 µM (inactive); with DU-145, 0.284 µM (active).
